Test results published in patent publication US20250332173A1, “COMPOUNDS AND METHODS FOR MODULATING NUCLEIC ACID SPLICING” (REMIX THERAPEUTICS INC., priority 2021, published 2025).
pIC50: −log10 of the molar value.

These compounds were tested on SMN2 mRNA (assay: RT-qPCR splicing assay, SMN2 canonical junction (CJ) mRNA). Settings: Homo sapiens; Table 5 panel; canonical junction qPCR; compound concentration having 50% response in CJ decrease; read-out: SMN2 IC50 (decrease in CJ mRNA levels).
Assay type: cell-based, human
Procedure, shortened: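 Canonical-junction transcript levels in compound-treated A673 or K562 cells (24 h, up to 10 uM final) were determined from lysates by RT-qPCR with housekeeping-gene normalization.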

Row | pIC50 | Structure (SMILES)
1 | > 7.00 | Cn1cc2cc(-c3ccc4c(=O)n(C5CCNCC5)cnc4c3)ccc2n1 [Compound 182]
2 | > 7.00 | Cc1cn2nc(-c3ccc4c(=O)n(C5CCNCC5)ncc4c3)cc(C)c2n1 [Compound 186]
3 | > 7.00 | Cc1cn2nc(-c3ccc4c(c3F)CCN(C3CCNCC3)C4=O)cc(C)c2n1 [Compound 188]
4 | < 5.00 | CN1CCC(Nc2ccc3c(=O)n(-c4ccc5cn(C)nc5c4)cnc3c2)CC1 [Compound 203]
5 | < 5.00 | Cn1cc2ccc(-n3cnc4cc(NC5CCNCC5)ccc4c3=O)cc2n1 [Compound 204]
6 | > 7.00 | Cc1c(O)c(-c2ncc3c(=O)n(C4CCNCC4)cc(C)c3n2)cc2cn(C)nc12 [Compound 1191]
7 | > 7.00 | Cc1cn2cc(-c3cc4ccn(C5CCNCC5)c(=O)c4cn3)cc(F)c2n1 [Compound 1196]
8 | 6.00 to 7.00 | Cc1cn2nc(-c3cc4ccn(C5CCNCC5)c(=O)c4cn3)cc(C)c2n1 [Compound 1198, 6-(2,8-dimethylimidazo[1,2-b]pyridazin-6-yl)-2-(piperidin-4-yl)-2,7-naphthyridin-1(2H)-one]
9 | > 7.00 | Cn1cc2cc(-c3cc4ccn(C5CCNCC5)c(=O)c4cn3)c(O)c(F)c2n1 [Compound 1199]
10 | > 7.00 | Cc1cc(-c2cc3ccn(C4CCNCC4)c(=O)c3cn2)cc2cn(C)nc12 [Compound 1204, 6-(2,7-dimethyl-2H-indazol-5-yl)-2-(piperidin-4-yl)-2,7-naphthyridin-1(2H)-one]
11 | > 7.00 | Cc1cn2cc(-c3cc4ccn(C5CCNCC5)c(=O)c4cn3)nc(C)c2n1 [Compound 1205, 6-(2,8-dimethylimidazo[1,2-a]pyrazin-6-yl)-2-(piperidin-4-yl)-2,7-naphthyridin-1(2H)-one]
12 | > 7.00 | Cc1cc(-c2cc3ccn(C4CCN(C)CC4)c(=O)c3cn2)cc2cn(C)nc12 [Compound 1206, 6-(2,7-dimethyl-2H-indazol-5-yl)-2-(1-methylpiperidin-4-yl)-2,7-naphthyridin-1(2H)-one]
13 | > 7.00 | CCN1CCC(n2ccc3cc(-c4cc(C)c5nn(C)cc5c4)ncc3c2=O)CC1 [Compound 1207, 6-(2,7-dimethyl-2H-indazol-5-yl)-2-(1-ethylpiperidin-4-yl)-2,7-naphthyridin-1(2H)-one]
14 | 6.00 to 7.00 | Cc1cc(-c2cc3ccn(C4CCN(C5CC5)CC4)c(=O)c3cn2)cc2cn(C)nc12 [Compound 1208, 2-(1-cyclopropylpiperidin-4-yl)-6-(2,7-dimethyl-2H-indazol-5-yl)-2,7-naphthyridin-1(2H)-one]
15 | 6.00 to 7.00 | Cc1cc(-c2cc3ccn(C4CCN(C5COC5)CC4)c(=O)c3cn2)cc2cn(C)nc12 [Compound 1209, 6-(2,7-dimethyl-2H-indazol-5-yl)-2-(1-(oxetan-3-yl)piperidin-4-yl)-2,7-naphthyridin-1(2H)-one-1]
16 | 6.00 to 7.00 | Cc1cc(-c2cc3ccn(C4CCN(CCO)CC4)c(=O)c3cn2)cc2cn(C)nc12 [Compound 1210, 6-(2.7-dimethyl-2H-indazol-5-yl)-2-(1-(2-hydroxyethyl)piperidin-4-yl)-2,7-naphthyridin-1(2H)-one]
17 | > 7.00 | Cn1cc2cc(-c3ncc4c(=O)n(C5CCNCC5)ccc4n3)c(O)cc2n1 [Compound 1211]
18 | > 7.00 | Cn1cc2cc(-c3ncc4c(=O)n(C5CCNCC5)ccc4n3)cc(F)c2n1 [Compound 1212, 2-(7-fluoro-2-methyl-2H-indazol-5-yl)-6-(piperidin-4-yl)pyrido[4,3-d]pyrimidin-5(6H)-one]
19 | 6.00 to 7.00 | Cc1cn2cc(-c3cc4ccn(C5CCNC5)c(=O)c4cn3)cc(C#N)c2n1 (stereo not drawn) [Compound 1214]
20 | > 7.00 | Cc1cn2cc(-c3ncc4c(=O)n(C5CCNC5)ccc4n3)cc(F)c2n1 (stereo not drawn) [Compound 1215]
21 | 6.00 to 7.00 | COc1c(-c2cc3ccn(C4CCNCC4)c(=O)c3cn2)cc2cn(C)nc2c1F [Compound 1219]
22 | > 7.00 | Cc1cn2cc(-c3ncc4c(=O)n([C@H]5CCNC5)ccc4n3)cc(F)c2n1 [Compound 1220]
23 | 6.00 to 7.00 | Cc1cn2cc(-c3ncc4c(=O)n(C5CCNC5)ccc4n3)cc(C#N)c2n1 (stereo not drawn) [Compound 1221]
24 | > 7.00 | Cc1c(O)c(-c2ncc3c(=O)n(C4CCNC4)ccc3n2)cc2cn(C)nc12 (stereo not drawn) [Compound 1222]
25 | > 7.00 | Cn1cc2cc(-c3ncc4c(=O)n(C5CCNC5)ccc4n3)c(O)c(F)c2n1 (stereo not drawn) [Compound 1223]
26 | > 7.00 | Cc1cn2cc(-c3ncc4c(=O)n(C5CCNCC5)ccc4n3)c(O)c(C)c2n1 [Compound 1225]
27 | 6.00 to 7.00 | Cc1cn2cc(-c3ncc4c(=O)n(C5CCNC5)ccc4n3)c(O)c(C)c2n1 (stereo not drawn) [Compound 1227]
28 | > 7.00 | Cc1cn2cc(-c3ncc4c(=O)n([C@@H]5CCNC5)ccc4n3)cc(F)c2n1 [Compound 1228]

Same assay, conditions: Homo sapiens; canonical junction qPCR panel, Table 5; read-out: SMN2 (decrease in CJ mRNA levels, IC50)

Row | pIC50 | Structure (SMILES)
29 | > 7.00 | Cc1c(O)c(-c2ncc3c(=O)n(C4CCNC4)ccc3n2)cc2cn(C)nc12 (stereo in doubt) [Compound 1439, (6R)-2-(6-hydroxy-2,7-dimethyl-indazol-5-yl)-6-pyrrolidin-3-yl-pyrido[4,3-d]pyrimidin-5-one]
30 | > 7.00 | Cc1c(O)c(-c2ncc3c(=O)n(C4CCNC4)ccc3n2)cc2cn(C)nc12 (stereo in doubt) [Compound 1440, (6S)-2-(6-hydroxy-2,7-dimethyl-indazol-5-yl)-6-pyrrolidin-3-yl-pyrido[4,3-d]pyrimidin-5-one]
31 | > 7.00 | Cc1c(O)c(-c2ncc3c(=O)n([C@@H]4CC5CC4CN5)ccc3n2)cc2cn(C)nc12 (stereo in doubt) [Compound 1443, 6-[(1R,4R,5R)-2-azabicyclo[2.2.1]heptan-5-yl]-2-(6-hydroxy-2,7-dimethyl-indazol-5-yl)pyrido[4,3-d]pyrimidin-5-one]
32 | > 7.00 | Cc1c(O)c(-c2ncc3c(=O)n(C4C[C@H]5C[C@@H]4CN5)ccc3n2)cc2cn(C)nc12 (stereo in doubt) [Compound 1444, 6-[(1R,4R,5R)-2-azabicyclo[2.2.1]heptan-5-yl]-2-(6-hydroxy-2,7-dimethyl-indazol-5-yl)pyrido[4,3-d]pyrimidin-5-one]
33 | 6.00 to 7.00 | Cc1c(O)c(-c2ncc3c(=O)n([C@@H]4C[C@H]5C[C@@H]4CN5)ccc3n2)cc2cn(C)nc12 (stereo in doubt) [Compound 1446, 6-[(1R,4R,5R)-2-azabicyclo[2.2.1]heptan-5-yl]-2-(6-hydroxy-2,7-dimethyl-indazol-5-yl)pyrido[4,3-d]pyrimidin-5-one]
34 | > 7.00 | Cn1cc2cc(-c3ccc4c(=O)n(C5CCNCC5)ccc4n3)cc(F)c2n1 [Compound 1231]
35 | 5.00 to 6.00 | Cc1cn2cc(-c3ccc4c(=O)n(C5CCNCC5)ccc4n3)nc(C)c2n1 [Compound 1238, 2-(2,8-dimethylimidazo[1,2-a]pyrazin-6-yl)-6-(piperidin-4-yl)-1,6-naphthyridin-5(6H)-one]
36 | 6.00 to 7.00 | Cc1cn2cc(-c3ccc4c(=O)n(C5CCNCC5)ccc4n3)c(O)cc2n1 [Compound 1240]
37 | > 7.00 | Cc1cn2cc(-c3ccc4c(=O)n(C5CCNCC5)ccc4n3)cc(C)c2n1 [Compound 1241, 2-(2,8-dimethylimidazo[1,2-a]pyridin-6-yl)-6-(piperidin-4-yl)-1,6-naphthyridin-5(6H)-one]
38 | > 7.00 | Cn1cc2cc(-c3ccc4c(=O)n(C5CCNC6(CC6)C5)ccc4n3)c(O)cc2n1 (stereo not drawn) [Compound 1242]
39 | < 5.00 | COc1c(-c2ccc3c(=O)n(C4CCNCC4)ccc3n2)cc2cn(C)nc2c1C [Compound 1243]
40 | > 7.00 | Cn1cc2cc(-c3ccc4c(=O)n([C@@H]5CCNC6(CC6)C5)ccc4n3)c(O)cc2n1 [Compound 1246]
41 | > 7.00 | Cc1c(O)c(-c2ccc3c(=O)n(C4CCNCC4)cc(C)c3n2)cc2cn(C)nc12 [Compound 1284]
42 | > 7.00 | Cc1cn(C2CCNCC2)c(=O)c2ccc(-c3cc4cn(C)nc4c(F)c3O)nc12 [Compound 1285]
43 | > 7.00 | Cn1cc2nc(-c3ccc4c(=O)n(C5CCNCC5)ccc4n3)c(O)cc2n1 [Compound 1296]
44 | > 7.00 | Cc1cn2cc(-c3ccc4c(=O)n(C5CCNCC5)ccc4n3)cc(C#N)c2n1 [Compound 1297]
45 | 6.00 to 7.00 | Cc1cn2cc(-c3ccc4c(=O)n(C5CCNC5)ccc4n3)cc(F)c2n1 (stereo not drawn) [Compound 1299]
46 | > 7.00 | Cc1c(O)c(-c2ncc3c(=O)n(C4CCC(N)CC4)ccc3n2)cc2cn(C)nc12 (stereo not drawn) [Compound 1300, 6-((1s,4s)-4-aminocyclohexyl)-2-(6-hydroxy-2,7-dimethyl-2H-indazol-5-yl)pyrido[4,3-d]pyrimidin-5(6H)-one]
47 | > 7.00 | Cc1cn2cc(-c3ncc4c(=O)n(C5CCNCC5)ccc4n3)cc(C#N)c2n1 [Compound 1301]
48 | 5.00 to 6.00 | Cc1cn2cc(-c3ccc4c(=O)n(C5CCNC5)ccc4n3)c(O)c(C)c2n1 (stereo not drawn) [Compound 1302]
49 | > 7.00 | Cc1c(O)c(-c2ncc3c(=O)n(N4CCNCC4)ccc3n2)cc2cn(C)nc12 [Compound 1303]
50 | > 7.00 | Cc1c(O)c(-c2ncc3c(=O)n(C4CCN(C)CC4)ccc3n2)cc2cn(C)nc12 [Compound 1304]
51 | > 7.00 | Cc1c(O)c(-c2ncc3c(=O)n(C4CNC4)ccc3n2)cc2cn(C)nc12 [Compound 1305, 6-(azetidin-3-yl)-2-(6-hydroxy-2,7-dimethyl-indazol-5-yl)pyrido[4,3-d]pyrimidin-5-one]
52 | > 7.00 | Cc1c(O)c(-c2ncc3c(=O)n(C45CCC(N)(CC4)C5)ccc3n2)cc2cn(C)nc12 [Compound 1428]
53 | 6.00 to 7.00 | Cc1c(O)c(-c2ncc3c(=O)n([C@H]4C[C@@H](N)C4)ccc3n2)cc2cn(C)nc12 [Compound 1431, 6-((1s,3s)-3-aminocyclobutyl)-2-(6-hydroxy-2,7-dimethyl-2H-indazol-5-yl)pyrido[4,3-d]pyrimidin-5(6H)-one]

Row | Structure (SMILES) | pIC50
54 | Cc1c(O)c(-c2ncc3c(=O)n([C@@H]4C[C@H]5CC[C@@H](C4)N5)ccc3n2)cc2cn(C)nc12 [Compound 1429, 6-[(1S,5R)-8-azabicyclo[3.2.1]octan-3-yl]-2-(6-hydroxy-2,7-dimethyl-indazol-5-yl)pyrido[4,3-d]pyrimidin-5-one] | > 7.00
